In PMC7665123, “In Vitro Anti-Inflammatory Activity in Arthritic Synoviocytes of A. brachypoda Root Extracts and Its Unusual Dimeric Flavonoids” (Molecules, 2020):

How the values were obtained:
[1] = system: human fibroblast like synoviocytes (HFLS); experiment: In vitro cytotoxicity (WST-1 cell viability) in HFLS; format: cell-based; conditions: 24 h, tested 3-100 µM
Procedure: Hip synovial membrane was collected from three male adult patients with clinical osteoarthritis (OA) at the time of hip replacement surgery. This protocol was conducted under the approval of the local Ethics Committee (CCER, Geneva, Switzerland) (Authorization #2017-02234) and with informed and consenting patients. Once collected, tissue samples were processed, according to previously described protocols. Briefly, samples were finely minced and digested for 3 h (37 °C, 5% CO2 incubation) in a 3 mg/mL collagenase IX-RPMI 1640 solution. After centrifugation (200× g) and supernatant removal, the resuspended pellet was cultured (37 °C, 5% CO2) in medium containing RPMI 1640, M199 (1:1), 1% penicillin/streptomycin (100 IU/mL:100 µg/mL), 2 mM L-glutamine and 20% fetal bovine serum. After overnight culture, non-adherent cells were removed. At confluence, cells were trypsinized and passaged to 75 cm^2 culture flasks (Corning, NY, USA) in complete medium containing 10% fetal bovine serum. A double control was performed to confirm presence of HFLS after isolation: visual morphology evaluation (Figure S3) and flow cytometry with synoviocyte specific surface markers ([…] and VCAM-1). […] All cellular assays were performed from passage 3 to 9. Experiments were conducted twice per donor (n = 6).
Confluent HFLS cells (25,000 cells/well) were treated in a 96-well plate with compounds 1, 2, and 3 (3 µM, 6 µM, 12 µM, 25 µM, 50 µM, and 100 µM), HEAB and DCMAB (increasing concentrations from 3 to 100 µg/mL), or control vehicle for 1 h. All tested compounds were dissolved in a dimethyl sulfoxide (DMSO) stock solution and further diluted in culture medium. Final concentration of DMSO in vehicle of tested concentrations was 0.01%. After 1 h incubation, cells were activated by addition of IL-1β (1 µg/mL) (R&D Systems, Bio-Techne, Abingdon, UK) with subsequent incubation for 23 h. All supernatants were kept at −80 °C, before further testing. […] Pro-inflammatory cytokine IL-6 release in cell supernatant was assessed by ELISA. […]

[2] = system: IL-6 release from IL-1β activated HFLS; experiment: IL-6 release by ELISA in IL-1β activated human fibroblast-like synoviocytes; format: cell-based; conditions: for inhibition at 25 µM: compounds at 25 µM = 13 µg/mL, read-out: Inhibition of IL-6 release at highest non-toxic concentration (%); for IC50: isolated compounds; for Fold higher activity (IC50) compared to compound 1 / DCMAB: IC50 comparison
Procedure: Hip synovial membrane was collected from three male adult patients with clinical osteoarthritis (OA) at the time of hip replacement surgery. […] Once collected, tissue samples were processed, according to previously described protocols. […] After overnight culture, non-adherent cells were removed. At confluence, cells were trypsinized and passaged to 75 cm^2 culture flasks (Corning, NY, USA) in complete medium containing 10% fetal bovine serum. […] All cellular assays were performed from passage 3 to 9. Experiments were conducted twice per donor (n = 6).
All tested compounds were dissolved in a dimethyl sulfoxide (DMSO) stock solution and further diluted in culture medium. Final concentration of DMSO in vehicle of tested concentrations was 0.01%. After 1 h incubation, cells were activated by addition of IL-1β (1 µg/mL) (R&D Systems, Bio-Techne, Abingdon, UK) with subsequent incubation for 23 h. All supernatants were kept at −80 °C, before further testing. Remaining adherent cells were tested for viability using the cell proliferation reagent WST-1 (Roche, Basel, Switzerland), according to the supplier instructions. Pro-inflammatory cytokine IL-6 release in cell supernatant was assessed by ELISA. […] All samples were diluted 90 times. Experiments were conducted twice per donor (n = 6).
In this study, data are presented as mean values ± standard deviation (S.D.). All analyses were performed using GraphPad Prism 8.3 software. IC50 values were determined using a nonlinear fitting of a log (inhibitor concentration) vs response variable slope for each donor’s data set. Consequent values were then averaged. After confirming the data normal distribution and homogeneity of variances (Brown-Forsythe and Welch; Shapiro-Wilk, D’Agostino-Pearson and Anderson-Darling), statistical analysis was performed using a two-way ANOVA with a Bonferroni multiple comparisons test. Significance was determined at alpha level 0.05. Significance values represented are * p < 0.05, ** p < 0.009 and ns for non-significance.

[3] = Homo sapiens, IL-1β activated HFLS, 24 h
[4] = Homo sapiens, IL-1β activated HFLS, 24 h, n = 6
[5] = Homo sapiens, µM values transformed into µg/mL

## COc1cc(O)cc2c1C(C=Cc1ccccc1)C1C(c3ccccc3)Oc3cc(O)cc(OC)c3C1O2 (stereo not drawn) [Compound 3, brachydin C]
[1]
  Concentration at which cytotoxicity / loss of viability occurs: 50 µM
[2]; [3]
  inhibition at 25 µM: 94 ± 5%
[2]; [4]
  IC50: 19 ± 3 µM
[2]; [5]
  IC50: 10 ± 3 µg/mL
[2]
  Fold higher activity (IC50) compared to compound 1 / DCMAB: 3 fold

## COc1ccc(C=CC2c3c(OC)cc(O)cc3OC3c4c(OC)cc(O)cc4OC(c4ccccc4)C23)cc1 (stereo not drawn) [Compound 2, brachydin B]
[1]
  Concentration at which cytotoxicity / loss of viability occurs: 50 µM
[2]; [3]
  inhibition at 25 µM: 80 ± 9%
[2]; [4]
  IC50: 17 ± 3 µM
[2]; [5]
  IC50: 9 ± 3 µg/mL
[2]
  Fold higher activity (IC50) compared to compound 1 / DCMAB: 3 fold

## COc1cc(O)cc2c1C(C=Cc1ccc(O)cc1)C1C(c3ccccc3)Oc3cc(O)cc(OC)c3C1O2 (stereo not drawn) [Compound 1, brachydin A]
[1]
  Concentration at which cytotoxicity / loss of viability occurs: 100 µM
[2]; Homo sapiens, 50 µM, non-significant
  inhibition at 50 µM: 24%
[2]; [3]
  inhibition at 25 µM: 10 ± 11%
[2]; [4]
  IC50: 62 ± 2 µM
[2]; [5]
  IC50: 33 ± 2 µg/mL
